Data reported in patent US20240216352A1 (priority 2022, published 2024).
Where “and” joins values, the source holds several entries; their conditions need not be identical. Identical values can stand only once.

Columns and labels:
LPA1 [1] = target: T1, LPA1 (Homo sapiens, UniProt Q92633); assay: LPA1 antagonism (Kb) in CHO cells overexpressing human LPA1; assay type: cell-based; design: expressed in transfected cells; host or cells: CHO cells
Excerpt: (§1) Compound A is currently in clinical development as a therapy for IPF and PF-ILD.

participants with PPF = assay: Phase 2 study, PPF cohort: safety and blood pressure; assay type: in vivo, human; settings: for Treatment discontinuations: 26-week treatment phase; for Nadir postdose reduction from baseline in mean seated systolic blood pressure: day 1
Description: A total of 123 participants with PPF were randomized. Participants (age ≥21 years) were randomized (1:1:1) to receive 30 mg or 60 mg Compound A or PBO twice daily for 26 weeks. […] Immunosuppressive medications (mycophenolate mofetil, mycophenolic acid, azathioprine and/or tacrolimus) were permitted only if dosing is stable for ≥6 months prior to screening. If receiving antifibrotic agents pirfenidone or nintedanib, patients had to receive a stable dosage for ≥3 months prior to screening and during the screening period; if not receiving pirfenidone or nintedanib, patients had to be naive to both drugs or not have received either 4 weeks prior to Day 1. A total of 47 (38.2%) subjects were receiving antifibrotic treatment (with or without immunosuppression therapy). Of those subjects, 34 were being treated with nintedanib and 13 with pirfenidone. Participants were stratified by usual interstitial pneumonia (UIP) pattern (presence versus absence) and background therapy (antifibrotics+/−ILD-targeted immunosuppression versus ILD-targeted immunosuppression alone versus none). UIP pattern was present in 52% of subjects and unclassifiable ILD was the most common disease categorization.
Patient is experiencing any of the following, confirmed by retest within 15 minutes: • Seated systolic blood pressure <85 mmHg • Seated diastolic blood pressure <55 mmHg • Orthostatic hypotension
Patient is experiencing symptoms that, in the investigator's opinion, could be associated with a reduction in blood pressure and is also experiencing at least one of the following, confirmed by retest within 15 minutes: • Seated systolic blood pressure <100 mmHg or seated diastolic blood pressure <60 mmHg • Decrease of seated systolic blood pressure of ≥20 mmHg from the previous visit or decrease of seated diastolic blood pressure of ≥10 mmHg from the previous visit • Orthostatic hypotension • Orthostatic tachycardia

LPA1 [2] = target: T1, LPA1; assay: LPA1 antagonism (Kb) in normal human lung fibroblasts; assay type: cell-based; design: LPA1Kb=5.9 nM in normal human lung fibroblasts; endogenous in cells; host or cells: normal human lung fibroblasts
Excerpt: as §1

T1 sequence (Q92633 whole entry): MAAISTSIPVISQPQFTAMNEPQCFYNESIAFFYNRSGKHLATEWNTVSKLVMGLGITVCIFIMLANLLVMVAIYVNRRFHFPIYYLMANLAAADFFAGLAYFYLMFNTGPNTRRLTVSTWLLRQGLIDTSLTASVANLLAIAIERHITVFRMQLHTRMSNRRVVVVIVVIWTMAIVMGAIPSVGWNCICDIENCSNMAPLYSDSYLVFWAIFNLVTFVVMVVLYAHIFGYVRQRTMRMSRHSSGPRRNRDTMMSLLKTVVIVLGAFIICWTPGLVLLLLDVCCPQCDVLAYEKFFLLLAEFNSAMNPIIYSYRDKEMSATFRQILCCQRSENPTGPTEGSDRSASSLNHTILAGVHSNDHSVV

SMILES: CCCN(C)C(=O)OCc1c(-c2ccc(O[C@H]3CCC[C@H](C(=O)O)C3)c(C)n2)nnn1C [Compound A, (1S,3S)-3-((2-methyl-6-(1-methyl-5-(((methyl(propyl)carbamoyl)-oxy)methyl)-1H-1,2,3-triazol-4-yl)pyridin-3-yl)oxy)cyclohexane-1-carboxylic acid]
- Kb (LPA1 [1]): 6.9 nM
- Hepatobiliary toxicity (participants with PPF; PPF cohort): No hepatobiliary toxicity
- Tolerability and safety findings (participants with PPF; PPF cohort): well-tolerated, demonstrated no unexpected safety findings
- Low BP thresholds (events) (participants with PPF; PPF, 30 mg): 30%
- Asymptomatic blood pressure reduction (prespecified criteria) (participants with PPF; PPF, 30 mg BID (n = 40)): 9 (22.5) no. (%)
- COVID-19 (participants with PPF; PPF, 30 mg BID (n = 40)): 6 (15.0) no. (%)
- Cough (participants with PPF; PPF, 30 mg BID (n = 40)): 3 (7.5) no. (%)
- Deaths due to TEAEs (participants with PPF; PPF, 30 mg BID (n = 40)): 0 no. (%)
- Diarrhea (participants with PPF; PPF, 30 mg BID (n = 40)): 6 (15.0) no. (%)
- Discontinuations due to TEAEs (participants with PPF; PPF, 30 mg BID (n = 40)): 1 no. (%) and 1 (2.5) no. (%)
- Dizziness (participants with PPF; PPF, 30 mg BID (n = 40)): 0 no. (%)
- Dose reductions (participants with PPF; PPF, 30 mg BID (n = 40)): 6 (15.0) no. (%)
- Dyspnea (participants with PPF; PPF, 30 mg BID (n = 40)): 2 (5.0) no. (%)
- Hypertension (participants with PPF; PPF, 30 mg BID (n = 40)): 0 no. (%)
- Hypotension (participants with PPF; PPF, 30 mg BID (n = 40)): 4 (10.0) no. (%)
- Nausea (participants with PPF; PPF, 30 mg BID (n = 40)): 4 (10.0) no. (%)
- Orthostatic hypotension (TEAE) (participants with PPF; PPF, 30 mg BID (n = 40)): 2 (5.0) no. (%)
- Orthostatic hypotension within asymptomatic blood pressure reduction (participants with PPF; PPF, 30 mg BID (n = 40)): 6 (15.0) no. (%)
- Orthostatic hypotension within symptomatic blood pressure reduction (participants with PPF; PPF, 30 mg BID (n = 40)): 1 (2.5) no. (%)
- Rash (participants with PPF; PPF, 30 mg BID (n = 40)): 3 (7.5) no. (%)
- Symptomatic blood pressure reduction (prespecified criteria) (participants with PPF; PPF, 30 mg BID (n = 40)): 2 (5.0) no. (%)
- Vomiting (participants with PPF; PPF, 30 mg BID (n = 40)): 3 (7.5) no. (%)
- ≥1 TEAE (participants with PPF; PPF, 30 mg BID (n = 40)): 33 (82.5) no. (%)
- ≥1 TEAE related to study drug (participants with PPF; PPF, 30 mg BID (n = 40)): 7 (17.5) no. (%)
- ≥1 TESAE (participants with PPF; PPF, 30 mg BID (n = 40)): 4 (10.0) no. (%)
- Treatment discontinuations (participants with PPF; PPF, 30 mg BID): 7.5%
- Nadir postdose reduction from baseline in mean seated systolic blood pressure (participants with PPF; PPF, 30 mg): −10.7 mmHg
- Asymptomatic blood pressure reduction (prespecified criteria) (participants with PPF; PPF, 60 mg BID (n = 42)): 13 (31.0) no. (%)
- COVID-19 (participants with PPF; PPF, 60 mg BID (n = 42)): 6 (14.3) no. (%)
- Cough (participants with PPF; PPF, 60 mg BID (n = 42)): 5 (11.9) no. (%)
- Deaths due to TEAEs (participants with PPF; PPF, 60 mg BID (n = 42)): 0 no. (%)
- Diarrhea (participants with PPF; PPF, 60 mg BID (n = 42)): 3 (7.1) no. (%)
- Discontinuations due to TEAEs (participants with PPF; PPF, 60 mg BID (n = 42)): 0 no. (%)
- Dizziness (participants with PPF; PPF, 60 mg BID (n = 42)): 4 (9.5) no. (%)
- Dose reductions (participants with PPF; PPF, 60 mg BID (n = 42)): 5 (11.9) no. (%)
- Dyspnea (participants with PPF; PPF, 60 mg BID (n = 42)): 0 no. (%)
- Hypertension (participants with PPF; PPF, 60 mg BID (n = 42)): 1 (2.4) no. (%)
- Hypotension (participants with PPF; PPF, 60 mg BID (n = 42)): 3 (7.1) no. (%)
- Nausea (participants with PPF; PPF, 60 mg BID (n = 42)): 1 (2.4) no. (%)
- Orthostatic hypotension (TEAE) (participants with PPF; PPF, 60 mg BID (n = 42)): 4 (9.5) no. (%)
- Orthostatic hypotension within asymptomatic blood pressure reduction (participants with PPF; PPF, 60 mg BID (n = 42)): 11 (26.2) no. (%)
- Orthostatic hypotension within symptomatic blood pressure reduction (participants with PPF; PPF, 60 mg BID (n = 42)): 4 (9.5) no. (%)
- Rash (participants with PPF; PPF, 60 mg BID (n = 42)): 0 no. (%)
- Symptomatic blood pressure reduction (prespecified criteria) (participants with PPF; PPF, 60 mg BID (n = 42)): 6 (14.3) no. (%)
- Vomiting (participants with PPF; PPF, 60 mg BID (n = 42)): 0 no. (%)
- ≥1 TEAE (participants with PPF; PPF, 60 mg BID (n = 42)): 28 (66.7) no. (%)
- ≥1 TEAE related to study drug (participants with PPF; PPF, 60 mg BID (n = 42)): 11 (26.2) no. (%)
- ≥1 TESAE (participants with PPF; PPF, 60 mg BID (n = 42)): 5 (11.9) no. (%)
- Treatment discontinuations (participants with PPF; PPF, 60 mg BID): 4.8%
- Orthostatic hypotension (asymptomatic and symptomatic) versus other groups (participants with PPF; PPF, 60 mg group): higher in the 60 mg group than for other groups
- Nadir postdose reduction from baseline in mean seated systolic blood pressure (participants with PPF; PPF, 60 mg): −12.7 mmHg
- Kb (LPA1 [2]): 5.9 nM
